Earlier results, collected in PubChem BioAssay AID1259410 (Chemical Carcinogenesis Research Information System (CCRIS), 2018).

Tested on: rodent tumor promotion studies, tumor incidence
Test: CCRIS tumor promotion studies

Question: For `CSCC[C@H](NC(=O)[C@H](Cc1ccccc1)NC(=O)CNC(=O)CNC(=O)[C@@H](N)Cc1ccc(O)cc1)C(=O)O`, which outcome (Carcinogen: AZOXYMETHANE, 25843-45-2, Doses [Carcinogen]: 7.4 MG/KG IN 0.9% SALINE 1/WK FOR 10 WK, Doses [Promoter]: 0, 50 UG/KG IN OLIVE OIL 1/2 D BEGINNING AT THE START OF CARCINOGEN TREATMENT AND CONTINUING FOR DURATION OF STUDY (STUD, Route [Carcinogen]: SUBCUTANEOUS, Route [Promoter]: SUBCUTANEOUS, Species: RAT, Strain/Sex: WISTAR/MALE) is on record?
Answer: colon: tumor

Question: What about the outcome (Carcinogen: N-METHYL-N'-NITRO-N-NITROSOGUANIDINE, 70-25-7, Doses [Carcinogen]: 25 UG/ML IN DRINKING WATER FOR 25 WK, Doses [Promoter]: 0, 20 UG/KG 1/2 D BEGINNING POST CARCINOGEN TREATMENT AND CONTINUING FOR THE DURATION OF STUDY (STUDY DURATION: 52 WK), Route [Carcinogen]: ORAL, Route [Promoter]: SUBCUTANEOUS, Species: RAT, Strain/Sex: WISTAR/MALE) of the same molecule?
Answer: stomach: adenocarcinoma

Question: For `CSCC[C@H](NC(=O)[C@H](CC(C)C)NC(=O)CNC(=O)[C@H](Cc1ccccc1)NC(=O)[C@H](Cc1ccccc1)NC(=O)[C@H](CCC(N)=O)NC(=O)[C@H](CCC(N)=O)NC(=O)[C@@H]1CCCN1C(=O)[C@H](CCCCN)NC(=O)[C@@H]1CCCN1C(=O)[C@@H](N)CCCN=C(N)N)C(N)=O`, which outcome (Carcinogen: N-METHYL-N'-NITRO-N-NITROSOGUANIDINE, 70-25-7, Doses [Carcinogen]: 50 UG/ML IN DRINKING WATER FOR 25 WK, Doses [Promoter]: 0, 12 UG/KG BW 1/2 D FOR 26 WK BEGINNING POST CARCINOGEN TREATMENT (STUDY DURATION: 52 WK), Route [Carcinogen]: ORAL, Route [Promoter]: SUBCUTANEOUS, Species: RAT, Strain/Sex: WISTAR/MALE, FEMALE) is on record?
Answer: stomach: tumor

Question: For `O=C([O-])/C=C/C(=O)[O-].[Fe+2]`, which outcome (Carcinogen: DIMETHYLHYDRAZINE, 540-73-8, Doses [Carcinogen]: 20 MG/KG 1/WK FOR 10 WK, Doses [Promoter]: 0, 3.5% IN DIET FOR 10 WK BEGINNING POST CARCINOGEN TREATMENT (STUDY DURATION: 20 WK), Route [Carcinogen]: SUBCUTANEOUS, Route [Promoter]: ORAL, Species: MOUSE, Strain/Sex: NMRI/MALE) is on record?
Answer: colon/rectum: tumor

Question: What about the outcome (Carcinogen: DIMETHYLHYDRAZINE, 540-73-8, Doses [Carcinogen]: 20 MG/KG 1/WK FOR 10 WK, Doses [Promoter]: 0, 3.5% IN DIET FOR 10 WK CONCURRENTLY WITH CARCINOGEN TREATMENT (STUDY DURATION: 20 WK), Route [Carcinogen]: SUBCUTANEOUS, Route [Promoter]: ORAL, Species: MOUSE, Strain/Sex: NMRI/MALE) of the same molecule?
Answer: colon/rectum: tumor

Question: Which outcome (Carcinogen: DIETHYLNITROSAMINE, 55-18-5, N-METHYL-N-NITROSOUREA, 684-93-5, N-BUTYL-N-(4-HYDROXYBUTYL)NITROSAMINE, 3817-11-6, DIMETHY, Carcinogen: DIETHYLNITROSAMINE, 55-18-5, N-METHYL-N-NITROSOUREA, 684-93-5, N-BUTYL-N-(4-HYDROXYBUTYL)NITROSAMINE, 3817-11-6, DIMETHY, Doses [Carcinogen]: 100 MG/KG BW DEN ONCE FOLLOWED BY 20 MG/KG BW MNU 4 TIMES AND 0.05% BBN IN DRINKING WATER DURING FIRST 2 WK THEN 40 MG/K, Doses [Promoter]: 0, 1% IN THE DIET FOR 24 WK BEGINNING 1 DAY POST CARCINOGEN TREATMENT (STUDY DURATION: 28 WK), Route [Carcinogen]: INTRAPERITONEAL, INTRAPERITONEAL, ORAL, SUBCUTANEOUS, ORAL, Route [Carcinogen]: INTRAPERITONEAL, INTRAPERITONEAL, ORAL, SUBCUTANEOUS, ORAL, Route [Promoter]: ORAL, Species: RAT, Strain/Sex: F344/MALE) does the source give for `CCCCCCOc1cc(C)c(O)c(C)c1C` here?
Answer: tongue: papilloma; forestomach: papilloma

Question: What about the outcome (Carcinogen: ETHYLNITROSOURETHANE, 614-95-9, Doses [Carcinogen]: 0.01% IN DRINKING WATER FOR 4 WK, Doses [Promoter]: 0, 0.25% IN DIET FOR 36 WK BEGINNING POST CARCINOGEN TREATMENT (STUDY DURATION: 40 WK), Route [Carcinogen]: ORAL, Route [Promoter]: ORAL, Species: RAT, Strain/Sex: F344/MALE) of the same molecule?
Answer: forestomach: papilloma, carcinoma

Question: With `CC(=O)OO` as the molecule, how does the outcome (Carcinogen: 7,12-DIMETHYLBENZ(A)ANTHRACENE, Doses [Carcinogen]: TOP, Route [Carcinogen]: DERMAL, Route [Promoter]: DERMAL, Species: MOUSE, Strain/Sex: FEMALE) read?
Answer: integumentary system (skin)

Question: For `CC[C@H](C)[C@H](NC(=O)[C@H](CO)NC(=O)[C@H](CC(N)=O)NC(=O)[C@H](CC(C)C)NC(=O)[C@H](Cc1ccc(O)cc1)NC(=O)[C@H](CCCCN)NC(=O)[C@H](CCCCN)NC(=O)[C@@H](NC(=O)[C@H](C)NC(=O)[C@H](CCSC)NC(=O)[C@H](CCC(N)=O)NC(=O)[C@H](CCCCN)NC(=O)[C@H](CCCNC(=N)N)NC(=O)[C@H](CC(C)C)NC(=O)[C@H](CCCNC(=N)N)NC(=O)[C@@H](NC(=O)[C@H](Cc1ccc(O)cc1)NC(=O)[C@H](CC(N)=O)NC(=O)[C@H](CC(=O)O)NC(=O)[C@@H](NC(=O)[C@H](Cc1ccccc1)NC(=O)[C@@H](NC(=O)[C@H](C)NC(=O)[C@H](CC(=O)O)NC(=O)[C@H](CO)NC(=O)[C@@H](N)Cc1c[nH]cn1)C(C)C)[C@@H](C)O)[C@@H](C)O)C(C)C)C(=O)N[C@@H](CC(C)C)C(=O)N[C@@H](CC(N)=O)C(=O)O`, which outcome (Carcinogen: AZOXYMETHANE, 25843-45-2, Doses [Carcinogen]: 7.4 MG/KG BW IN 0.9% SALINE 1/WK FOR 10 WK, Doses [Promoter]: 0, 20 UG/KG BW IN OLIVE OIL 1/2 D FOR DURATION OF STUDY (STUDY DURATION: 45 WK), Route [Carcinogen]: SUBCUTANEOUS, Route [Promoter]: SUBCUTANEOUS, Species: RAT, Strain/Sex: WISTAR/MALE) is on record?
Answer: colon: tumor
